Reference: PubChem BioAssay (NCI)
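Values below derive from 48-hour exposures of cells grown in 96-well plates, with endpoints linearly interpolated between the two concentrations bracketing the appropriate inhibition level. At the TGI there is no net growth.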

Legend:
Test in all cases: DTP human tumour cell line panel, 48 h
[1] = tested on: DU-145 prostate
[2] = tested on: HT29 colon
[3] = tested on: IGROV1 ovarian
[4] = tested on: KM12 colon
[5] = tested on: NCI-H226 lung
[6] = tested on: NCI-H460 lung
[7] = tested on: NCI-H522 lung
[8] = tested on: PC-3 prostate
[9] = tested on: SF-268 CNS
[10] = tested on: SN12C renal

Compound | TGI [1] [µM] | TGI [2] [µM] | TGI [3] [µM] | TGI [4] [µM] | TGI [5] [µM] | TGI [6] [µM] | TGI [7] [µM] | TGI [8] [µM] | TGI [9] [µM] | TGI [10] [µM]
CSC(SC)=C1C(=O)NN=C1C | > 100 | > 100 | > 100 | > 100 | > 100 | > 100 | > 100 | > 100 | > 100 | > 100
CCOC(=O)c1c(O)[nH]c(=O)c(CC)c1C | > 100 | > 100 | > 100 | > 100 | > 100 | > 100 | > 100 | > 100 | > 100 | > 100
CC(C)(C)c1cc(C(=O)/C=C/c2ccc(O)c(O)c2O)cc(C(C)(C)C)c1O | 35.6 | 27.7 | 43.9 | 11.6 | 33.2 | 6.56 | 4.94 | 15.7 | > 51.4 | 13.8
Cc1ccc(-c2sc(-c3ccc(C)cc3)c3c2C2CCC3C2)cc1 | > 50 | > 50 | > 50 | > 50 | > 50 | > 50 | > 50 | > 50 | > 50 | > 50
O=[N+]([O-])c1ccc(Cl)cc1-n1nc(-c2ccccc2)cc1-c1ccccc1 | > 100 | > 100 | > 100 | > 100 | > 100 | > 100 | > 100 | > 100 | > 100 | > 100
Cc1ccc(/C=C2\CN(C)CC3C(c4ccc(C)cc4)=C(C#N)C(=O)NC23)cc1 (stereo not given) | > 50 | > 50 | > 50 | > 50 | > 50 | > 50 | > 50 | > 50 | > 50 | > 50
Clc1ccccc1/C=C/c1nsc(/C=C/c2ccccc2Cl)n1 | > 100 | > 100 | > 100 | > 100 | > 100 | 46.4 | > 100 | > 100 | > 100 | 51.5
CC(=O)OC1/C(=C/c2ccc([N+](=O)[O-])cc2)C[C@H]2[C@@H]3CC=C4C[C@@H](OC(C)=O)CC[C@]4(C)[C@H]3CC[C@]12C (stereo not given in full) | > 100 | > 100 | > 100 | > 100 | > 100 | > 100 | > 100 | > 100 | > 100 | > 100
COc1cc2c(cc1OC)C1Cc3ccccc3CCN1CC2 (stereo not given) | > 100 | > 100 | > 100 | > 100 | > 100 | > 100 | > 100 | > 100 | > 100 | > 100
O=C(O)c1cccc(S(=O)(=O)NN2C(=O)CSC2c2ccccc2)c1 (stereo not given) | > 100 | > 100 | > 100 | > 100 | > 100 | > 100 | > 100 | > 100 | > 100 | > 100
CCOC(=O)C1(Cc2ccccc2)Cc2cc3c(cc2C1)CCC3 | > 100 | 46.2 | > 100 | > 100 | 76.8 | > 100 | 96.2 | > 100 | > 100 | > 100
Oc1c(C2=NNC(c3cccs3)C2)ccc2ccccc12 (stereo not given) | 61.7 | 40 | 95.9 | 36.2 | > 100 | 43.4 | 60.6 | > 100 | 38.3 | 38.1
CCC1(OC(=O)CN2CCN(CCO)CC2)C(=O)OCc2c1cc1n(c2=O)Cc2cc3ccccc3nc2-1 (stereo not given) | 2.24 | 8.85 | 17.4 | 4.49 | 2.2 | 0.971 | 3.05 | > 100 | 13.2 | 29.8
N#Cc1cccc(C2ON=C(c3ccc([N+](=O)[O-])cc3)N2C23CC4CC(CC(C4)C2)C3)c1 (stereo not given) | > 100 | > 100 | > 100 | > 100 | > 100 | > 100 | > 100 | > 100 | > 100 | > 100
CCOC(=O)N1CCN(Cc2cc(=O)n3cc(C)ccc3n2)CC1 | > 100 | > 100 | > 100 | > 100 | > 100 | > 100 | > 100 | > 100 | > 100 | > 100
